Activity calls are given as the source filed them.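 The calls were made as follows: active = EGF receptor protein level falling or rising by at least 30% versus DMSO-treated cells; inactive = the rest.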
Target: Epidermal growth factor receptor (Homo sapiens) (UniProt P00533)
Experiment: EGFR abundance shift in colorectal carcinoma cells – HT29 cells, chemiluminescent western blot, total EGFR, counter-screen for KLF5 inhibitor project, late-stage follow-up (AID 588654)
Details: 24 h, at 10 µM, hits give high values

Sequence of Epidermal growth factor receptor (Homo sapiens) (P00533 whole entry, looked up): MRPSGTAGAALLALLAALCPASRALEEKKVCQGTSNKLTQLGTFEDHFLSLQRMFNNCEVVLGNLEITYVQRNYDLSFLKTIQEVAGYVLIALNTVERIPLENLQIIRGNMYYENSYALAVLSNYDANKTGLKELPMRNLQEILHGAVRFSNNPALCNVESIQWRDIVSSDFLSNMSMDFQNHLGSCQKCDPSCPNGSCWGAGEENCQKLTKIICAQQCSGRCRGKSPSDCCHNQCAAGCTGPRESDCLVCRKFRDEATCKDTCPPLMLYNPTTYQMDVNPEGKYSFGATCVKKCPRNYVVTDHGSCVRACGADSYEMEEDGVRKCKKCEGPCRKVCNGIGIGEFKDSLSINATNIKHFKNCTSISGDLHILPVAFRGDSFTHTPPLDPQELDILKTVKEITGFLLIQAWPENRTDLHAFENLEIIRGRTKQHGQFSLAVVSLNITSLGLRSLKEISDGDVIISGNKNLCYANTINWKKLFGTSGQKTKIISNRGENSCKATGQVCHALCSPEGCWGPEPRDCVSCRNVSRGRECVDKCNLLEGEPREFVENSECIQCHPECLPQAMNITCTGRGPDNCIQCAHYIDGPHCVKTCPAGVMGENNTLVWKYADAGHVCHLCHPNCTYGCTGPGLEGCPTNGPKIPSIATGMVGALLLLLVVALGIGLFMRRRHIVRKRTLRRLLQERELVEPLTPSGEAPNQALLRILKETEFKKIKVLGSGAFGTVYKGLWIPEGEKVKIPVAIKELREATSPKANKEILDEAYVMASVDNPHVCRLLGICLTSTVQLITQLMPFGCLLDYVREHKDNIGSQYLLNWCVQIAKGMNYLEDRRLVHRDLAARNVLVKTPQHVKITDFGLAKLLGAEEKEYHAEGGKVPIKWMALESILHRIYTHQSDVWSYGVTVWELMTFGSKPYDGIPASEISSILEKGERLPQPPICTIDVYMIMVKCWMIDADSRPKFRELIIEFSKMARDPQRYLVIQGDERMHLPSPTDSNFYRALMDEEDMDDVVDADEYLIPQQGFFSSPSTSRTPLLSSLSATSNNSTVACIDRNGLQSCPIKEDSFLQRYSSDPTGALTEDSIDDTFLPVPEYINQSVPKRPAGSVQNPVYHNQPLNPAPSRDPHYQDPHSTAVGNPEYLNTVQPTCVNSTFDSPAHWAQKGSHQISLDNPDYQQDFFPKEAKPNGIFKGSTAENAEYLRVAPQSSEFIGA

inhibition | SMILES
16.4% (inactive) | CN(C(=O)COC(=O)/C=C/c1cccc([N+](=O)[O-])c1)C1CCS(=O)(=O)C1 (stereo not drawn)
-0.393% (inactive) | CN(C(=O)CNC(=O)/C=C/c1cccc(Cl)c1)C1CCS(=O)(=O)C1 (stereo not drawn)
7.26% (inactive) | CN(C(=O)CNC(=O)/C=C/c1cccc(Cl)c1)C1CCS(=O)(=O)CC1

From PubChem BioAssay AID588654 (The Scripps Research Institute Molecular Screening Center, 2011)
